Among the data in PubChem BioAssay (NCI) are TGI and GI50 values, retold here.

“And” between values parts separate entries of the source, which are not always exact repeats. Equal values may be shown once.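 Following 48 hours of exposure in 96-well plates, responses at five concentrations were used to interpolate endpoints linearly. GI50 marks 50% less growth. TGI is the concentration that stops growth completely.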

Among the test systems are DLD-1 colon; LXFL 529 NSCLC; HOP-18 NSCLC; RXF-631 renal; M19-MEL melanoma; XF 498 CNS; MDA-N; DMS 114 small cell lung; DMS 273 small cell lung.
What all share (experiment): growth of human tumour cells (NCI), 48 h

As for `CCNC(=O)O/N=C1\CCC2[C@@H]3CC=C4C[C@@H](OC5CCCCO5)CC[C@]4(C)C3CC[C@]12C` (stereo partly specified), the TGI in the assay with DLD-1 colon is more than 100 µM; with LXFL 529 NSCLC, 2.43 µM; with HOP-18 NSCLC, 4.28 µM; in the assay on RXF-631 renal it was 22.4 µM; in the assay with M19-MEL melanoma, 3.6 µM.

As for `COc1cc2c(cc1OC)C1Cc3cc(OC)c(OC)cc3C(C2)N1C`, the TGI in the assay with XF 498 CNS is more than 100 µM; in the assay on DLD-1 colon it was more than 100 µM; with LXFL 529 NSCLC, more than 100 µM; in the assay with MDA-N, more than 75 µM.

`COc1ccccc1NC(=O)c1nc2ccc([N+](=O)[O-])cc2nc1C`: the TGI with XF 498 CNS is 73.8 µM; in the assay on DLD-1 colon, more than 100 µM; in the assay on LXFL 529 NSCLC, more than 100 µM; with DMS 114 small cell lung, more than 100 µM; with HOP-18 NSCLC it was 39.9 µM; with DMS 273 small cell lung it was more than 100 µM. Besides, in the assay with M19-MEL melanoma, the TGI is more than 100 µM.

On to `Cc1ccc(S(=O)OCC23CC4CC(CC(C4)C2)C3)cc1` (stereo unspecified), for which the TGI with XF 498 CNS, in the assay with DLD-1 colon, in the assay with LXFL 529 NSCLC, in the assay with HOP-18 NSCLC, in the assay on DMS 273 small cell lung and with M19-MEL melanoma was more than 100 µM throughout.

`CN(Cc1cc(Cl)cc(Cl)c1O)Cc1c(O)ccc2ccccc12` had a TGI in the assay on MDA-N of 66.1 µM.

With `OCc1c[te]c(-c2ccccc2)c1`, the TGI with DLD-1 colon was more than 100 µM; with LXFL 529 NSCLC, more than 100 µM; in the assay on DMS 114 small cell lung it was 91.7 µM; in the assay on RXF-631 renal, more than 100 µM; in the assay on DMS 273 small cell lung, more than 100 µM; in the assay on M19-MEL melanoma it was more than 100 µM.

As to `CC#CC1C2CCCC1(CSc1ccccc1)NC(=O)O2` (stereo unspecified), the TGI in the assay on XF 498 CNS, with DLD-1 colon, with LXFL 529 NSCLC, in the assay on DMS 114 small cell lung, with HOP-18 NSCLC and in the assay with RXF-631 renal was more than 100 µM throughout. Moreover, the TGI in the assay on DMS 273 small cell lung and in the assay with M19-MEL melanoma was more than 100 µM throughout.

As for `O=C(COC(=O)c1cccc2c(=O)c3ccccc3[nH]c12)Nc1ccc(C(=O)O)cc1`, the TGI in the assay on XF 498 CNS was 95.6 µM; in the assay with DLD-1 colon it was more than 100 µM; in the assay on DMS 114 small cell lung, more than 100 µM; in the assay on HOP-18 NSCLC, more than 100 µM; in the assay with RXF-631 renal it was more than 100 µM; in the assay with M19-MEL melanoma, more than 100 µM.

Turning to `CC(C)(C)CC(N)=O`, in the assay with MDA-N, the TGI is more than 100 µM.

Consider `Cc1cc(C)nc(NS(=O)(=O)c2ccc(Nc3c4ccc(Cl)cc4nc4c(C(=O)NCCN(C)C)cccc34)cc2)n1`, for which the TGI with XF 498 CNS, with DLD-1 colon, in the assay on LXFL 529 NSCLC, in the assay with DMS 114 small cell lung, in the assay on RXF-631 renal and with DMS 273 small cell lung was more than 100 µM each time. Besides, in the assay on M19-MEL melanoma, the TGI is more than 100 µM.

On to `NNC(=O)N/N=C1\C(=O)N(c2ccc(Cl)c(Cl)c2)C(=O)C(=O)C1c1nc2ccccc2s1` (stereo unspecified), for which the TGI in the assay on XF 498 CNS, in the assay on DLD-1 colon, in the assay with LXFL 529 NSCLC, in the assay with DMS 114 small cell lung, in the assay with HOP-18 NSCLC and in the assay on DMS 273 small cell lung was more than 100 µM in each case.

As for `CS(=O)(=O)CC(=O)c1ccccc1`, the TGI in the assay with MDA-N is more than 100 µM.

As to `CC(=O)Nc1ccc(COC(O)CN2CCCCC2)cc1[N+](=O)[O-]` (stereo unspecified), in the assay with MDA-N, the TGI was more than 100 µM.

`NCOC(=O)Cc1ccc(Br)cc1`: in the assay on MDA-N, the TGI is more than 100 µM.

In the assay on MDA-N, `O=c1ssc(Cl)c1Cl` came in with a TGI of more than 10 µM.

Consider `O=C(/C(=C\c1ccc(Cl)cc1)c1ccccc1)c1ccccc1`, for which the TGI is 95.5 µM in the assay on XF 498 CNS; more than 100 µM in the assay on DLD-1 colon; more than 100 µM in the assay on LXFL 529 NSCLC; more than 100 µM in the assay with DMS 114 small cell lung; more than 100 µM in the assay on HOP-18 NSCLC.

In the assay with MDA-N, `Cc1cc(C(C)(C)C)cc(CNC2CCCCC2)c1O` had a TGI of 29.9 µM.

Turning to `COC(=O)C(Cc1nc2ccccc2nc1C)/C(=N\NC(N)=O)C(=O)Nc1cccc([N+](=O)[O-])c1` (stereo unspecified), the TGI with XF 498 CNS, in the assay on DLD-1 colon, in the assay with LXFL 529 NSCLC, with DMS 114 small cell lung, in the assay with HOP-18 NSCLC and in the assay with RXF-631 renal was more than 100 µM each time. In the assay on M19-MEL melanoma, this compound showed a TGI of more than 100 µM.

As to `COc1ccc(C2C(C)C(=O)C(C)C(c3ccc(OC)cc3)N2N=O)cc1` (stereo unspecified), the GI50 was 27 µM and 39.1 µM in the assay on XF 498 CNS; more than 750 µM in the assay on DLD-1 colon; more than 1000 µM in the assay on LXFL 529 NSCLC; more than 1000 µM in the assay with DMS 114 small cell lung; more than 1000 µM in the assay on HOP-18 NSCLC; 270 µM in the assay with RXF-631 renal. In addition, the GI50 in the assay with DMS 273 small cell lung was 609 µM; in the assay with M19-MEL melanoma, more than 1000 µM. Moreover, the TGI was 69.7 µM and 160 µM and > 460 µM with XF 498 CNS; more than 1000 µM in the assay with DLD-1 colon; more than 1000 µM in the assay with LXFL 529 NSCLC; more than 1000 µM with DMS 114 small cell lung; more than 1000 µM in the assay on HOP-18 NSCLC; 750 µM and 281 µM with RXF-631 renal. Further, the TGI in the assay on DMS 273 small cell lung is 750 µM and > 1000 µM; in the assay with MDA-N, 381 µM; with M19-MEL melanoma, more than 1000 µM.
